Measurements reported in ChEMBL document CHEMBL1126672, “1,3-dioxolanylpurine nucleosides (2R,4R) and (2R,4S) with selective anti-HIV-1 activity in human lymphocytes” (J Med Chem, 1993).

Experiments:
CCRF-CEM [1] = experiment: Cytotoxicity against uninfected PHA-stimulated CEM cells was determined.; format: cell-based; settings: Homo sapiens
[2] = Cytotoxicity against uninfected PHA-stimulated human peripheral blood mononuclear (PBM) cells was determined.; format: cell-based
[3] = Antiviral activity was evaluated in mitogen-stimulated human peripheral blood mononuclear (PBM) cells infected with HIV-1 strain LAV.; format: functional
Vero [4] = experiment: Cytotoxicity against uninfected PHA-stimulated vero cells was determined.; format: cell-based; settings: Chlorocebus sabaeus
CCRF-CEM [5] = experiment: Cytotoxicity against uninfected PHA-stimulated CEM cells was determined; format: cell-based; settings: Homo sapiens
[6] = Cytotoxicity against uninfected PHA-stimulated human peripheral blood mononuclear (PBM) cells was determined; format: cell-based
[7] = Antiviral activity was evaluated in mitogen-stimulated human peripheral blood mononuclear (PBM) cells infected with HIV-1 strain LAV; format: functional
Vero [8] = experiment: Cytotoxicity against uninfected PHA-stimulated vero cells was determined; format: cell-based; settings: Chlorocebus sabaeus

EC50 [3] [µM]	EC50 [7] [µM]	SMILES	IC50 (CCRF-CEM [1]) [µM]	IC50 [2] [µM]	IC50 (Vero [4]) [µM]	IC50 (CCRF-CEM [5]) [µM]	IC50 [6] [µM]	IC50 (Vero [8]) [µM]
26.5		OC[C@@H]1OC[C@H](n2cnc3c(S)ncnc32)O1	> 100	> 100	> 100			
11.1		OC[C@@H]1OC[C@@H](n2cnc3c(Cl)ncnc32)O1	57.6	> 100	> 100			
22.8		OC[C@@H]1OC[C@H](n2cnc3c(Cl)ncnc32)O1	> 100	> 100	> 100			

More lines, now with the values behind:

SMILES	EC50 [3] [µM]	EC50 [7] [µM]	IC50 (CCRF-CEM [1]) [µM]	IC50 [2] [µM]	IC50 (Vero [4]) [µM]	IC50 (CCRF-CEM [5]) [µM]	IC50 [6] [µM]	IC50 (Vero [8]) [µM]
Nc1nc2c(ncn2[C@H]2CO[C@@H](CO)O2)c(=O)[nH]1		0.03				> 100	> 100	> 100
Nc1nc(Cl)nc2c1ncn2[C@@H]1CO[C@@H](CO)O1	39.9		> 100	> 100	> 100			
CSc1ncnc2c1ncn2[C@H]1CO[C@@H](CO)O1		25.1				> 100	> 100	> 100
Cc1cn([C@H]2C[C@H](N=[N+]=[N-])[C@@H](CO)O2)c(=O)[nH]c1=O [ZIDOVUDINE]	0.004		30.9	> 100				
Nc1nc(Cl)nc2c1ncn2[C@H]1CO[C@@H](CO)O1	1.7		> 100	> 100	> 100			
CNc1nc(Cl)nc2c1ncn2[C@H]1CO[C@@H](CO)O1	40		> 100	> 100	> 100			
